What was measured:
[1] = test system: T rubrum (ATCC-22402); experiment: Terbinafine susceptibility testing of isolates by culture on terbinafine-containing agar (CLSI M38-A3); settings: wild type strain ATCC-22402
Protocol: (§1) The isolates are re-tested for terbinafine drug resistance by plating the isolates on the sabouraud dextrose agar (SDA)/Potato dextrose agar (PDA) plates containing different concentration of terbinafine. Reagent-grade terbinafine (TRB) were obtained in the powder form (Sigma-Aldrich, Missouri, USA). Drug stock solutions were prepared in dimethyl sulfoxide (DMSO). The dermatophyte isolates were cultured on SDA/PDA for 21-30 days. In vitro testing of the susceptibility to Terbinafine allylamine was performed according to the Clinical and Laboratory Standards Institute (CLSI) document M38-A3 (CLSI, 2018). The drugs were analyzed at the final concentration in the range of 0.002-32 μg/ml for TRB.
(§2) Wild type strains for T rubrum (ATCC-22402) and T mentagrophytes (ATCC-28146) are obtained from ATCC.

[2] = test system: T mentagrophytes (ATCC-28146); experiment: as above; settings: wild type strain ATCC-28146
Protocol: as §1, §2

CN(C/C=C/C#CC(C)(C)C)Cc1cccc2ccccc12 [terbinafine]
terbinafine susceptibility by culture [1]: susceptible
terbinafine susceptibility by culture [2]: susceptible
